These results are taken from patent US9315475B2 (MERCK SHARP & DOHME CORP., priority 2011, dated 2016).

The term EC50 denotes the concentration at which the effect is half-maximal. High values mean a need for much substance, low ones an effect from little substance.

The test system of test [1] is HIV-1 (H9IIIB strain). Nature of the test: Antiviral acute infection assay in cell culture (Spread). In kind it is cell-based. As to conditions: Human immunodeficiency virus 1, T-lymphoid, HIV-1 H9IIIB infection of MT-4 human T-lymphoid cells in 10% FBS; mean of at least two independent experiments. From the text: Antiviral Assays in Cell Culture (“Spread”)
Acute Infection Assay (“Spread”) data were generated using HIV-1 (H9IIIB strain) infection of MT-4 human T-lymphoid cells in 10% FBS, and according to the methods disclosed by J. P. Vacca et al, “L-735,524: An orally bioavailable human immunodeficiency virus type 1 protease inhibitor,” Proc. Natl. Acad. Sci. USA, Vol. 91, pp. 4096-4100 (April 1994).

Test [2] concerns the target T1, wildtype HIV-1 protease (Human immunodeficiency virus type 1 group M subtype B, UniProt P04585).
T1 construct: the wildtype HIV-1 protease (which was expressed in Escherichia coli); made in house; host or cells: Escherichia coli
As to the kind of experiment: Assay for inhibition of microbial expressed HIV protease (Pepcleav). Conditions: wild type HIV-1 protease expressed in E. coli, peptide substrate, pH 5.5; mean of at least two independent experiments; read-out: Pepcleav. In kind it is biochemical. Summed up:
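Cleavage of 400 μM peptide substrate Val-Ser-Gln-Asn-(βnaphthyl)Ala-Pro-Ile-Val by 20 pM wild-type enzyme (E. coli-expressed) ran 1 h at 30 °C after 30 min inhibitor preincubation, pH 5.5 acetate buffer. Inhibition derived from product peak area by C18 LC with multiple-reaction-monitoring MS after formic acid quench.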

On to `CCC(CO)NC(=O)OC[C@@H]1CO[C@H](CCc2c(F)cncc2NC(=O)CC(c2ccc(F)cc2)c2ccc(F)cc2)CN1` (stereo partly drawn) [Example 165, {(3S,6R)-6-[2-(3-{[3,3-bis(4-fluorophenyl)propanoyl]amino}-5-fluoropyridin-4-yl)ethyl]morpholin-3-yl}methyl [1-(hydroxy-methyl)propyl]carbamate], for which, in test [1], it took 40 nM to reach a half-maximal effect (EC50). Further, the IC50 in test [2] turned out to be 4.5 nM.

As to `COC(=O)N[C@H](C(=O)Nc1cccc(F)c1CC[C@@H]1CN[C@H](COC(=O)NCC(F)(F)F)CO1)[C@H](c1ccc(F)cc1)c1ccc2ccccc2c1` [Example 289], in test [1], the 50% effective concentration (EC50) was determined as 310 nM. In addition, in test [2], the IC50 stood at 16 nM.

`COC(=O)N[C@H](C(=O)Nc1cncc(F)c1CC[C@@H]1CN[C@H](COC(=O)NCC(F)(F)F)CO1)[C@@H](c1ccc(F)cc1)c1cccc(F)c1` [Example 281, (βS)-3-fluoro-β-(4-fluorophenyl)-N-(5-fluoro-4-{2-[(2R, 5S)-5-({[(2,2,2-trifluoroethyl)carbamoyl]oxy}methyl)morpholin-2-yl]ethyl}pyridin-3-yl)-Nα-(methoxycarbonyl)-L-phenylalaninamide] came in with an EC50 in test [1] of 14 nM. Moreover, the IC50 in test [2] came to 0.9 nM.

In test [1], `N[C@H](C(=O)Nc1cccc(F)c1CC[C@@H]1CN[C@H](COC(=O)NCC(F)(F)F)CO1)[C@H](c1ccc(F)cc1)c1ccc(F)c(F)c1` [Example 270, (βR)-β-(3,4-difluorophenyl)-4-fluoro-N-(3-fluoro-2-{2-[(2R,5S)-5-({[(2,2,2-trifluoroethyl)carbamoyl]oxy}methyl)morpholin-2-yl]ethyl}phenyl)-L-phenylalaninamide] registered an EC50 of 22 nM. Besides, the IC50 in test [2] amounted to 2.1 nM.

Regarding `COC(=O)N[C@H](C(=O)Nc1cccc(F)c1CC[C@@H]1CN[C@H](COC(N)=O)CO1)C(c1ccc(F)cc1)c1ccc(F)cc1` [Example 284, N-[2-(2-{(2R,5S)-5-[(carbamoyloxy)methyl]morpholin-2-yl}ethyl)-3-fluorophenyl]-4-fluoro-β-(4-fluorophenyl)-Nα-(methoxy-carbonyl)-L-phenylalaninamide], the EC50 in test [1] came to 19 nM. In test [2], the IC50 came out at 12 nM.

Consider `O=C(C[C@H](c1ccccc1)c1ccc(Cl)cc1)Nc1cccc(F)c1CC[C@@H]1CN[C@H](COC(=O)NCC(F)(F)F)CO1` [Example 150, {(3S,6R)-6-[2-(2-{[(3R)-3-(4-chlorophenyl)-3-phenylpropanoyl]amino}-6-fluorophenyl)ethyl]morpholin-3-yl}methyl (2,2,2-trifluoroethyl) carbamate], for which the EC50 in test [1] came out at 130 nM. In addition, the IC50 in test [2] was 11 nM.

Molecule `COC(=O)N[C@H](C(=O)Nc1cccc(F)c1CC[C@@H]1CN[C@H](COC(=O)NCC(F)(F)F)CO1)C(c1ccc(F)cc1)c1ccc(F)cc1` [Example 285] yielded an EC50 in test [1] of 21 nM. For the same molecule, the IC50 in test [2] was 13 nM.

The molecule `O=C(C[C@@H](c1ccc(F)cc1)C1CCCCC1)Nc1cncc(F)c1CC[C@@H]1CN[C@H](COC(=O)NCC(F)(F)F)CO1` [Example 148, {(3S,6R)-6-[2-(3-{[(3R)-3-cyclohexyl-3-(4-fluorophenyl)propanoyl]amino}-5-fluoropyridin-4-yl)ethyl]morpholin-3-yl}methyl (2,2,2-trifluoroethyl)carbamate] returned an EC50 in test [1] of 150 nM. For the same molecule, in test [2], the IC50 was found to be 22 nM.

Turning to `CNC(=O)OC[C@@H]1CO[C@H](CCc2c(F)cncc2NC(=O)[C@@H](N)C(c2ccc(F)cc2)c2ccc(F)cc2)CN1` [Example 205, 4-fluoro-N-(5-fluoro-4-{2-[(2R,5S)-5-{[(methylcarbamoyl)oxy]methyl}morpholin-2-yl]ethyl}pyridin-3-yl)-β-(4-fluorophenyl)-L-phenylalaninamide], in test [1], the EC50 stood at 58 nM. For the same molecule, the IC50 in test [2] came to 24 nM.

`O=C(C[C@@H](c1ccc(F)cc1)c1cc(F)cc(F)c1)Nc1cncc(F)c1CC[C@@H]1CNC(COC(=O)NCC(F)(F)F)CO1` (stereo in doubt) [Example 89, (3S)-3-(4-Fluorophenyl)-3-(3,5-difluorophenyl)-N-(5-fluoro-4-(2-((2R,5R)-5-(2,2,2-trifluoroethylaminocarbonyloxymethyl)morpholine-2-yl)ethyl)pyridin-3-yl)propanamide] gave an EC50 in test [1] of 13 nM. Besides, the IC50 in test [2] came out at 1.4 nM.

The molecule `N[C@H](C(=O)Nc1cccc(F)c1CC[C@@H]1CN[C@H](COC(=O)NCC(F)(F)F)CO1)[C@H](c1ccc(F)cc1)c1cccc(Cl)c1` [Example 257, (βR)-β-(3-chlorophenyl)-4-fluoro-N-(3-fluoro-2-{2-[(2R,5S)-5-({[(2,2,2-trifluoroethyl)carbamoyl]oxy}methyl)morpholin-2-yl]ethyl}phenyl)-L-phenylalaninamide] had an EC50 in test [1] of 51 nM. Besides, the IC50 in test [2] came to 5.1 nM.

The molecule `N[C@H](C(=O)Nc1cccc(F)c1CC[C@@H]1CN[C@H](COC(=O)NCC(F)(F)F)CO1)[C@@H](c1ccc(Cl)cc1)c1cccc(F)c1` [Example 274, (βS)-β-(4-chlorophenyl)-3-fluoro-N-(3-fluoro-2-{2-[(2R,5S)-5-({[(2,2,2-trifluoroethyl)carbamoyl]oxy}methyl)morpholin-2-yl]ethyl}phenyl)-L-phenylalaninamide] showed a concentration giving a half-maximal response (EC50) in test [1] of 11 nM. Moreover, the IC50 in test [2] was 1.3 nM.

Turning to `CC1(CNC(=O)OC[C@@H]2CO[C@H](CCc3c(F)cncc3NC(=O)CC(c3ccc(F)cc3)c3ccc(F)cc3)CN2)CCCO1` (stereo partly drawn) [Example 166, {(3S,6R)-6-[2-(3-{[3,3-bis(4-fluoro-phenyl)propanoyl]amino}-5-fluoropyridin-4-yl)ethyl]morpholin-3-yl]methyl [(2-methyltetrahydrofuran-2-yl)methyl]carbamate], in test [1], the 50% effective concentration (EC50) was found to be 37 nM. For the same molecule, the IC50 in test [2] is 14 nM.

In turn, `N[C@H](C(=O)Nc1cncc(F)c1CC[C@@H]1CN[C@H](COC(=O)NCC(F)(F)F)CO1)[C@H](c1ccccc1)c1ccc(OC(F)(F)F)cc1` [Example 238, (βR)-N-(5-fluoro-4-{2-[(2R,5S)-5-({[(2,2,2-trifluoroethyl)carbamoyl]oxy}methyl)morpholin-2-yl]ethyl}pyridin-3-yl)-β-phenyl-O-(trifluoromethyl)-L-tyrosinamide] came in with an EC50 in test [1] of 470 nM. For the same molecule, the IC50 in test [2] stood at 69 nM.

For `COc1ccc([C@H](CC(=O)Nc2cccc(F)c2CC[C@@H]2CN[C@H](COC(=O)NCC(F)(F)F)CO2)c2ccc(F)cc2)cc1` [Example 151, {(3S,6R)-6-[2-(2-fluoro-6-{[(3S)-3-(4-fluorophenyl)-3-(4-methoxy-phenyl)propanoyl]amino}phenyl)ethyl]morpholin-3-yl}methyl (2,2,2-trifluoroethyl)carbamate], the EC50 in test [1] amounted to 290 nM. Besides, the IC50 in test [2] worked out at 100 nM.

In test [1], `N[C@H](C(=O)Nc1cccc(F)c1CC[C@@H]1CN[C@H](COC(=O)NCC(F)(F)F)CO1)[C@@H](c1ccc(F)cc1)c1cccc(OC(F)(F)F)c1` [Example 263, (βS)-4-fluoro-N-(3-fluoro-2-{2-[(2R,5S)-5-({[(2,2,2-trifluoroethyl)carbamoyl]oxy}methyl)morpholin-2-yl]ethyl}phenyl)-β-[3-(trifluoromethoxy)phenyl]-L-phenylalaninamide] had an EC50 of 48 nM. Besides, the IC50 in test [2] came to 3.7 nM.

Consider `N[C@H](C(=O)Nc1cncc(F)c1CC[C@@H]1CN[C@H](COC(=O)NC[C@H]2CCCO2)CO1)C(c1ccc(F)cc1)c1ccc(F)cc1` [Example 215, 4-fluoro-β-(4-fluorophenyl)-N-[5-fluoro-4-(2-{(2R,5S)-5-[({[(2R)-tetrahydrofuran-2-ylmethyl]carbamoyl}oxy)methyl]morpholin-2-yl}ethyl)pyridin-3-yl]-L-phenylalaninamide], for which a half-maximal response in test [1] (EC50) required 25 nM. For the same molecule, in test [2], the IC50 worked out at 3.5 nM.

In test [1], `CC1(CNC(=O)OC[C@@H]2CO[C@H](CCc3c(F)cncc3NC(=O)[C@@H](N)C(c3ccc(F)cc3)c3ccc(F)cc3)CN2)CCCO1` (stereo partly drawn) [Example 123, 4-Fluoro-N-[5-fluoro-4-(2-{(2R,5S)-5-[({[(2-methyltetrahydrofuran-2-yl)methyl]carbamoyl}oxy)methyl]morpholin-2-yl}ethyl)pyridin-3-yl]-β-(4-fluorophenyl)-L-phenylalaninamide] returned an EC50 of 19 nM. In test [2], the IC50 is 3.2 nM.

Molecule `N[C@H](C(=O)Nc1cncc(F)c1CC[C@@H]1CN[C@H](COC(=O)NC(CC(F)(F)F)c2ccc(F)cc2)CO1)C(c1ccc(F)cc1)c1ccc(F)cc1` (stereo partly drawn) [Example 276, 4-fluoro-β-(4-fluorophenyl)-N-[5-fluoro-4-(2-{(2R,5S)-5-[({[3,3,3-trifluoro-1-(4-fluorophenyl)propyl]carbamoyl}oxy)methyl]morpholin-2-yl}ethyl)pyridin-3-yl]-L-phenylalaninamide] gave an EC50 in test [1] of 28 nM. Also, in test [2], the IC50 was 0.2 nM.

On to `COC(=O)N[C@H](C(=O)Nc1cccc(F)c1CC[C@@H]1CN[C@H](COC(=O)NCC(F)(F)F)CO1)[C@H](c1ccccc1)c1ccc2ccccc2c1` [Example 290, (βR)-N-(3-fluoro-2-{2-[(2R,5S)-5-({[(2,2,2-trifluoroethyl)carbamoyl]oxy}methyl)morpholin-2-yl]ethyl}phenyl)-Nα-(methoxycarbonyl)-β-naphthalen-2-yl-L-phenylalaninamide], for which the EC50 in test [1] came to 600 nM. For the same molecule, the IC50 in test [2] came out at 30 nM.
